Test system: 217524-143-R1-J4-PDC spheroids with HUVEC/MSC, viability
Assay: Anticancer human tumor 217524-143-R1-J4-PDC patient-derived pancreatic carcinoma cell line growth inhibition [CLK]
Conditions: for IC50: curve of first compound; for viability, T/C: stronger effect = lower value
In short: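 Multi-cell-type spheroids combined patient-derived tumor cells with HUVEC endothelial cells and human mesenchymal stem cells. Paired agents were dosed in half-log steps down from about clinical Cmax, or from 10 microM where Cmax was unknown.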
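Note: spheroids exposed to agents for seven days before reading.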
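Throughout, for viability, T/C: 100% = DMSO vehicle control viability.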

Question: Which results are given for NC(=O)C(=Cn1cnc(-c2cc(C(F)(F)F)cc(C(F)(F)F)c2)n1)c1cncnc1 + CNC(=O)c1ccc(Nc2nc(OC3CCCC3)c3c(-c4ccc5nc(C)oc5c4)c[nH]c3n2)c(OC)c1?
Answer: IC50 (second compound 0.0316 µM): 16.6 nM; IC50 (second compound 0.1 µM): < 9.49 nM; IC50 (second compound 0.316 µM): < 9.49 nM; IC50 (second compound 1 µM): < 9.49 nM; IC50 (second compound 3.16 µM): < 9.49 nM; IC50 (second compound 10 µM): < 9.49 nM; viability, T/C (second compound 0.0316 µM, first compound 0.00949 µM): 60.5%; viability, T/C (second compound 0.0316 µM, first compound 0.03 µM): 38.8%; viability, T/C (second compound 0.0316 µM, first compound 0.0949 µM): 22.9%; viability, T/C (second compound 0.0316 µM, first compound 0.3 µM): 25.2%; viability, T/C (second compound 0.0316 µM, first compound 0.949 µM): 26.6%; viability, T/C (second compound 0.0316 µM, first compound 3 µM): 20.1%; viability, T/C (second compound 0.1 µM, first compound 0.00949 µM): 29.9%; viability, T/C (second compound 0.1 µM, first compound 0.03 µM): 28.1%; viability, T/C (second compound 0.1 µM, first compound 0.0949 µM): 21%; viability, T/C (second compound 0.1 µM, first compound 0.3 µM): 24.4%; viability, T/C (second compound 0.1 µM, first compound 0.949 µM): 23%; viability, T/C (second compound 0.1 µM, first compound 3 µM): 18.7%; viability, T/C (second compound 0.316 µM, first compound 0.00949 µM): 23.2%; viability, T/C (second compound 0.316 µM, first compound 0.03 µM): 18.9%; viability, T/C (second compound 0.316 µM, first compound 0.0949 µM): 16.9%; viability, T/C (second compound 0.316 µM, first compound 0.3 µM): 17.7%; viability, T/C (second compound 0.316 µM, first compound 0.949 µM): 18.9%; viability, T/C (second compound 0.316 µM, first compound 3 µM): 13.2%; viability, T/C (second compound 1 µM, first compound 0.00949 µM): 18.8%; viability, T/C (second compound 1 µM, first compound 0.03 µM): 12.9%; viability, T/C (second compound 1 µM, first compound 0.0949 µM): 11.7%; viability, T/C (second compound 1 µM, first compound 0.3 µM): 11.5%; viability, T/C (second compound 1 µM, first compound 0.949 µM): 10.9%; viability, T/C (second compound 1 µM, first compound 3 µM): 8.56%; viability, T/C (second compound 3.16 µM, first compound 0.00949 µM): 14.1%; viability, T/C (second compound 3.16 µM, first compound 0.03 µM): 12.6%; viability, T/C (second compound 3.16 µM, first compound 0.0949 µM): 9.81%; viability, T/C (second compound 3.16 µM, first compound 0.3 µM): 8.7%; viability, T/C (second compound 3.16 µM, first compound 0.949 µM): 6.96%; viability, T/C (second compound 3.16 µM, first compound 3 µM): 6.45%; viability, T/C (second compound 10 µM, first compound 0.00949 µM): 14.2%; viability, T/C (second compound 10 µM, first compound 0.03 µM): 12%; viability, T/C (second compound 10 µM, first compound 0.0949 µM): 9.72%; viability, T/C (second compound 10 µM, first compound 0.3 µM): 7.3%; viability, T/C (second compound 10 µM, first compound 0.949 µM): 6.09%; viability, T/C (second compound 10 µM, first compound 3 µM): 5.49%

— PubChem BioAssay AID2060624 (Molecular Pharmacology Branch, DTP, NCI, 2025)
